In BindingDB's records for doi:10.1021/acs.jmedchem.9b01663 (Dalian University of Technology, 2020):

Assay: Inhibition of CRM1 in human HCT-15 cells assessed as reduction in cell viability incubated for 24 hrs

Question: With `[O-][S@@+](/C=C/CCN=C=S)c1cc(C(F)(F)F)cc(C(F)(F)F)c1` as the compound, how does the IC50 read?
Answer: 151 nM
